One assay has as its system W2. The experiment in a line: Cross-resistance EC50 assay, W2 parent. The assay is classed as cell-based, Plasmodium falciparum. To be noted: for EC50: Plasmodium falciparum, 48 h, read-out: W2F6 (PARENT) Average EC50. From the text: (§1) Multidrug resistance alleles, including mutations in P. falciparum chloroquine resistance transporter (pfcrt) and P. falciparum multi-drug resistance transporter 1 (pfmdr1) are very common in field isolates. Therefore, we sought to assess the degree to which pre-existing resistance alleles would contribute to a loss of potency for this diverse collection of small molecule compounds. Fifteen clones derived from three main parent lines were chosen to maximize diversity in mutated pathways and genetic backgrounds, thus representing the variety of resistance seen in the field: 3D7 (ref. [23]), W2 (ref. [24]) or Dd2 (ref. [25]). The 3D7 line originates from the clone of a Netherlands clinical isolate strain[23][26] and is generally considered to be drug sensitive, though it does convey resistance to sulfadoxine. Conversely, W2 (ref. [24], [27]) and Dd2 (ref. [25]) are multi-drug-resistant lines originating from the Indochina III/CDC isolate, which contain point mutations in pfcrt as well as amplifications in pfmdr1 and GTP cyclohydrolase.
(§2) To evaluate potential overlapping activity against known antimalarial drug targets, we performed dose-response studies with each compound against our assembled set of drug-resistant lines and their corresponding parents, in an asexual blood stage proliferation assay (Table 1). Comparisons were made to the drug-sensitive strain 3D7 when a parent was unavailable (TM90C2A, W2 and Dd2). As laboratories conducted EC50 assays with different strains and protocols, all comparisons were made between assays from the same laboratory and under the same assay conditions. Compounds displaying >5-fold EC50 shifts relative to the parent or sensitive strain were flagged as having potentially non-novel targets. Average fold shifts per strain ranged from 0.82 to 2.34, with a median of 1.23 indicating there was not common resistance to any one resistant clone. No resistance patterns were observed when classifying the compounds based on chemical structure, but this was not surprising given the diversity of compounds chosen. On the other hand, given that these confirmed compounds were derived from larger unconfirmed hit lists to which some filtration criteria may have been applied (for example, elimination of obvious dihydrofolate reductase inhibitors[32]), some[10][11][12][13] pre-existing bias may exist in the set.
The 48-h assay was carried out in a 96-well format following standard methods using the ^3H-hypoxanthine incorporation assay. The raw EC50 values corresponding to this assay can be found in Supplementary Data 3. Briefly, this assay relies on the parasite incorporation of labelled hypoxanthine that is proportional to P. falciparum growth. A culture of parasitized RBCs (0.5% parasitemia with a percentage of ring stage higher than 70% of total parasitemia, 2.0% haematocrit) in RPMI-1640, […] and 5 μM hypoxanthine was exposed to drug serial dilutions. Plates were incubated for 24 h at 37 °C, 5% CO2, 5% O2 and 90% N2. After 24 h of incubation, ^3H-hypoxanthine was added and plates were incubated for an additional 24-h period. After that, parasites were harvested on a glass fibre filter using a TOMTEC Cell Harvester 96. Filters were dried and melt-on scintillator sheets were used to determine the incorporation of ^3H-hypoxanthine. Radioactivity was measured using a microbeta counter. Data were normalized using the incorporation of the positive (parasitized RBCs without drug) and negative (same culture with artesunate at 2 μM) controls. All assays were conducted in triplicate using three independently grown cultures, and EC50 values were determined using the XLfit add-in module for Excel (version 2.3.1) from Grafit (version 5.3.1.3), where parameter h is the assay hill slope, x is the compound concentration and y is the inhibition of growth effect. The XLfit equation is: […]
Alternatively, a SYBR Green-based proliferation approach was used for the 72-h assay, as previously described. […]

A further assay concerns Dd2. Kind of assay: Cross-resistance EC50 assay, Dd2 parent. The assay is classed as cell-based, Plasmodium falciparum. To be noted: for EC50: Plasmodium falciparum.
Source text: as §1
as §2, with “set. […]” for “set.”
Alternatively, a SYBR Green-based proliferation approach was used for the 72-h assay, as previously described. Briefly, a culture of either synchronized or asynchronous parasitized RBCs (0.3% parasitemia and 4% haematocrit) in screening medium (identical to supplemented medium above except no serum was added) was exposed to serial drug dilutions. Plates were incubated at 37 °C and gassed with 93% N2, 4% CO2 and 3% O2 for 72 h. Following incubation, 10 × SYBR Green I (Invitrogen; supplied in 10,000 × concentration) in lysis buffer ([…], 5 mM EDTA, 0.16% Saponin wt per vol and 1.6% Triton X vol per vol) was added to the wells and the plates were incubated overnight at room temperature before plate reading. EC50 assays were repeated three times, taking the average EC50 value from each assay set, and removing any outliers using a single iteration of Grubbs' test, eliminating values with z-scores above the critical z-value (α=0.05). The raw EC50 values for synchronized parasites assayed in a 384-well format are listed in Supplementary Data 4. The raw EC50 values for asynchronous parasites assayed in a 96 or 1536-well format are listed in Supplementary Data 5.
EC50 values for each strain were compared with those of the corresponding parent strain to determine fold-shift changes and identify resistance. To minimize the cause variance between assays, all comparisons were conducted between strains assayed under identical conditions. A one-way ANOVA followed by a Dunnet's post-test was conducted in GraphPad Prism to identify significant changes between the parent and resistant strain.

[1] abbreviates: DD2, 72 h, read-out: Dd2 (PARENT) Average EC50.
[2] abbreviates: DD2, 72 h, read-out: Dd2 (PARENT) EC50 (µM) Average EC50.

Read-outs that look alike come from different tables or passages of the source.

As for `CN(C)CCCNCc1ccc(-c2ccc(Cl)c(Cl)c2)o1` [MMV673964], the concentration for a half-maximal effect (EC50) (as a rule, the concentration that produces a half-maximal response) came out at 0.561 µM with W2, 0.426 µM with Dd2 (setting [1]) and 1.12 µM in the assay on Dd2 (setting [2]).

As to `COc1ccc2c3c([nH]c2c1)[C@H](CO)N(C(C)=O)CC31CCN(C(=O)Nc2ccccc2F)CC1` [MMV673482], the concentration for a half-maximal effect (EC50) in the assay on W2 turned out to be 0.176 µM; in the assay with Dd2 (setting [1]) it was 0.07 µM; in the assay on Dd2 (setting [2]), 0.005 µM.

Take `CCCCCCCN(Cc1ccc(OC(C)(C)C(=O)OCC)cc1)C(=O)Nc1ccc(Cl)cc1OCC` [MMV021735]: the values for the concentration for a half-maximal effect (EC50) in the assay on W2, in the assay with Dd2 (setting [1]) and in the assay on Dd2 (setting [2]) were 0.361 µM, 0.258 µM and 1.29 µM, respectively.

For `FC(F)(F)c1cccc(Nc2nc3ccccc3nc2Nc2cccc(C(F)(F)F)c2)c1` [MMV665794], the values for the EC50 with W2, in the assay with Dd2 (setting [1]) and in the assay on Dd2 (setting [2]) were 0.181 µM, 0.113 µM and 0.199 µM, respectively.

Regarding `Cc1c(C)n(Cc2ccc(F)cc2)c2ccc(C(=O)NCc3ccco3)cc12` [MMV008149], the EC50 in the assay with W2 stood at 0.805 µM; in the assay with Dd2 (setting [1]), 0.09 µM; in the assay with Dd2 (setting [2]), 1.63 µM; with Dd2 (DD2, read-out: EC50, Dd2 parent) it was 0.485 µM.

Take `COc1ccc(C(=O)C2CC2c2ccc(Cl)cc2)cc1` (stereo not shown) [MMV665924]: the EC50 was found to be 1.38 µM in the assay with W2, 1.19 µM in the assay on Dd2 (setting [1]) and 1.58 µM with Dd2 (setting [2]).

As to `OC(CNC1CCCCC1)Cn1c2ccccc2c2ccccc21` (stereo not shown) [MMV009063], the concentration for a half-maximal effect (EC50) in the assay with W2 worked out at 0.126 µM; with Dd2 (setting [1]), 0.188 µM; in the assay on Dd2 (setting [2]), 0.364 µM.

With `COc1cc2cc(C(=O)Nc3ccccc3)c(N)nc2cc1OC` [MMV006767], the EC50 in the assay on W2 was 1.82 µM; in the assay on Dd2 (setting [1]), 1.6 µM; with Dd2 (setting [2]) it was 0.215 µM.

As to `CN(C)S(=O)(=O)c1cc(-c2ccc3nccc(-c4cccc(S(N)(=O)=O)c4)c3c2)cnc1N` [MMV024038], the results for the 50% effective concentration (EC50) in the assay on W2, with Dd2 (setting [1]) and in the assay with Dd2 (setting [2]) were 0.327 µM, 0.106 µM and 0.509 µM, respectively.

As to `COCCNCC(O)Cn1c2ccc(Cl)cc2c2cc(Cl)ccc21` (stereo not shown) [MMV019017], the EC50 with W2 is 0.138 µM; in the assay on Dd2 (setting [1]), 0.477 µM; with Dd2 (setting [2]), 0.998 µM.

Turning to `CCC(C)NCC(O)(c1ccc(Cl)cc1)c1ccc(Cl)cc1` (stereo not shown) [MMV665928], the figures for the EC50 in the assay on W2, in the assay with Dd2 (setting [1]) and with Dd2 (setting [2]) were 0.137 µM, 0.427 µM and 0.331 µM, respectively.

Take `COc1ccc(NC(=O)N2CCCCN3[C@H](CN)[C@H](c4ccc(C#Cc5ccccc5)cc4)[C@@H]3C2)cc1` [BRD1095]: the concentration for a half-maximal effect (EC50) with Dd2 (setting [1]) came out at 0.013 µM; in the assay with Dd2 (setting [2]), 0.00257 µM.

In the case of `O=C(Nc1ccc(Cl)c(Cl)c1)Nc1ccc(Cl)c(Cl)c1` [MMV665852], the EC50 was determined as 1.59 µM in the assay with W2, 0.894 µM in the assay with Dd2 (setting [1]) and 1.8 µM with Dd2 (setting [2]).

With `Brc1ccc(Nc2nc3ccccc3nc2Nc2ccc(Br)cc2)cc1` [MMV007224], the results for the concentration giving a half-maximal response (EC50) in the assay on W2, in the assay with Dd2 (setting [1]) and with Dd2 (setting [2]) were 0.288 µM, 0.274 µM and 0.714 µM, respectively.

As for `Nc1ncc(-c2cn[nH]c2)cc1-c1nc2ccc(F)cc2[nH]1` [MMV023367], the figures for the EC50 in the assay on W2, in the assay with Dd2 (setting [1]) and in the assay with Dd2 (setting [2]) were 0.244 µM, 0.654 µM and 1.96 µM, respectively.

For the molecule `CCOc1cc2c(cc1OCC)C(c1cc(Cl)ccc1O)NCC2` (stereo not shown) [MMV000478], the EC50 was 0.172 µM with W2, 0.803 µM in the assay with Dd2 (setting [1]) and 0.843 µM in the assay with Dd2 (setting [2]).

Regarding `CN(C)CCCN(C)C(=O)C1Cc2cc(-c3ccccc3)ccc2N1S(=O)(=O)c1ccccc1` (stereo not shown) [MMV028895], the values for the EC50 in the assay on W2, with Dd2 (setting [1]) and with Dd2 (setting [2]) were 0.153 µM, 0.349 µM and 6.01 µM, respectively. In the assay with W2 (compared with 3D7), the “potency against W2 strains” value is reported as “maintained potency”. For the same molecule, the “EC50 fold-shift, Dd2 compared with 3D7” value in the assay with Dd2 (loss of efficacy) is 7.1 ×.

Take `CC(C)c1cccc(C(NC(=O)C2Cc3ccccc3CN2C(=O)c2cccc(N3CCOCC3)c2)C2CCCC2)c1` (stereo not shown) [MMV028038]: the concentration giving a half-maximal response (EC50) in the assay on W2 was found to be 0.489 µM; with Dd2 (setting [1]) it was 0.299 µM; with Dd2 (setting [2]) it was 0.622 µM.

`O=C(Nc1ccsc1C(=O)NC1CCCCC1)c1ccc(F)cc1` [MMV665939]: the figures for the EC50 with W2, in the assay with Dd2 (setting [1]) and in the assay with Dd2 (setting [2]) were 9.88 µM, 1.96 µM and 2.06 µM, respectively. In addition, the “EC50 fold-shift, W2 compared with 3D7” value with W2 (loss of efficacy) was found to be 9.5 ×. Moreover, the “EC50 fold-shift, Dd2 compared with 3D7, average” value in the assay with Dd2 (average) was 2.4 ×.

For `CN1CCN(c2ccc(Nc3c4ccccc4nc4ccccc34)cc2)CC1` [MMV006172], the values for the EC50 with W2, with Dd2 (setting [1]) and in the assay with Dd2 (setting [2]) were 0.227 µM, 0.168 µM and 0.298 µM, respectively.

Take `CN(C)Cc1ccc(-c2cc3c(-c4ccc(CN(C)C)cc4)ccnc3[nH]2)cc1.O=C(O)C(F)(F)F` [MMV022224]: the EC50 in the assay on W2 is 0.406 µM; with Dd2 (setting [1]), 0.41 µM; in the assay on Dd2 (setting [2]), 0.302 µM.

For the molecule `c1cncc(-c2cc(N3CCC(CN4CCOCC4)CC3)nc(-c3ccncc3)n2)c1` [MMV668399], the figures for the EC50 in the assay with W2, in the assay on Dd2 (setting [1]) and in the assay with Dd2 (setting [2]) were 0.164 µM, 0.087 µM and 0.984 µM, respectively.

On to `CC(NCc1ccccc1)c1cc(Cl)ccc1O` (stereo not shown) [MMV665789], for which the half-maximal effective concentration (EC50) in the assay on W2 stood at 0.147 µM; in the assay with Dd2 (setting [1]) it was 0.482 µM; in the assay with Dd2 (setting [2]), 0.333 µM.

In the case of `Cc1ccc(Oc2ncccc2C(=O)Cc2cccc3cccnc23)c(C)c1` [MMV020746], the EC50 with W2 came to 0.247 µM; in the assay with Dd2 (setting [1]), 0.241 µM; in the assay on Dd2 (setting [2]) it was 1.86 µM.

Take `CC(C)(C)OC(=O)N1CCN(c2ccccc2NC(=O)c2cccc(C(F)(F)F)c2Oc2ccc(F)cc2)CC1` [MMV030666]: the EC50 in the assay with W2 came to 0.298 µM; in the assay on Dd2 (setting [1]), 0.374 µM; in the assay on Dd2 (setting [2]), 0.255 µM.

In the case of `CCCN(CCC)CC(O)COc1ccccc1C(=O)Nc1ccccc1` (stereo not shown) [MMV006455], the half-maximal effective concentration (EC50) turned out to be 0.106 µM in the assay with W2, 1.21 µM with Dd2 (setting [1]) and 0.408 µM in the assay with Dd2 (setting [2]).

Consider `c1cc(-c2cnc3ccc(-c4ccc(N5CCOCC5)cc4)nn23)ccn1` [MMV668311], for which the figures for the EC50 in the assay with W2, in the assay with Dd2 (setting [1]) and in the assay with Dd2 (setting [2]) were 0.029 µM, 0.056 µM and 0.039 µM, respectively.

As to `COc1ccc(N2CCN(C(CNC(=O)C3CCCCC3)c3ccc4c(c3)OCO4)CC2)cc1` (stereo not shown) [MMV019662], the half-maximal effective concentration (EC50) turned out to be 0.428 µM in the assay on W2, 0.357 µM in the assay on Dd2 (setting [1]) and 0.242 µM in the assay on Dd2 (setting [2]).
